Results from publication PMC9768162, “Synthesis of macrocyclic nucleoside antibacterials and their interactions with MraY” (Nature Communications, 2022).
In brackets after ≈: the same amount, converted by molar mass. Several values for one entry are separate records, joined by “and”; a condition that tells them apart may be missing. Equal values may be shown once. Read-outs that look alike come from different tables or passages of the source.

Legend:
[1] = target: T1, MraYSA (S. aureus MraY enzyme) (Staphylococcus aureus, UniProt Q2FZ93); parameters: His tag (inferred from His-Trap purification); made in house; host or cells: E. coli; method as in PMID 27622529; conditions: read-out: MraYSA inhibitory activity IC50; cited from earlier work
T1 sequence (Q2FZ93 1-321): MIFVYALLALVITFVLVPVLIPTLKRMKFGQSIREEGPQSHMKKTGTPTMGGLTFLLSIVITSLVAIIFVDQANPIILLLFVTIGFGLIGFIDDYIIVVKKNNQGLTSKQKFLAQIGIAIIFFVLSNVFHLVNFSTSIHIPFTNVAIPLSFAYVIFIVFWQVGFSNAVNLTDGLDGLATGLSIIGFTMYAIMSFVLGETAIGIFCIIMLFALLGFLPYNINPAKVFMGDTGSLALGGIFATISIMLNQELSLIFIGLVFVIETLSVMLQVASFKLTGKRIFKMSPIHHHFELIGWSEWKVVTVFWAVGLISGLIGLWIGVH

S. aureus [2] = conditions: S. aureus ATCC 29213; cited from earlier work
M. tuberculosis = assay: MIC in 7H9 liquid medium, 2 weeks; format: cell-based; conditions: Mycobacterium tuberculosis, 336 h, M. tuberculosis H37Rv, 37 °C, minimum concentration inhibiting at least 50% of growth
K. pneumoniae = assay: Antibacterial activity, MIC by microdilution broth method (CLSI); format: cell-based; conditions: Klebsiella pneumoniae, ATCC13883; K. pneumoniae ATCC 13883; CA-MHB, 37 °C, 20 h
E. cloacae = assay: as above; format: cell-based; conditions: Enterobacter cloacae, ATCC13047; E. cloacae ATCC 13047; CA-MHB, 37 °C, 20 h
S. aureus [3] = assay: as above; format: cell-based, Staphylococcus aureus; conditions: Staphylococcus aureus, ATCC29213, 20 h, S. aureus ATCC 29213; CA-MHB, 37 °C, 20 h
[4] = target: T1, MraYSA (S. aureus MraY enzyme); assay: Fluorescence-based MraY inhibitory assay (dansylated Park's nucleotide); conditions: for MraYSA activity, source data of Fig. 7b, average: average of n=1-3
E. faecium = assay: Antibacterial activity, MIC by microdilution broth method (CLSI); format: cell-based, Enterococcus faecium; conditions: Enterococcus faecium, ATCC35667, 20 h, E. faecium ATCC 35667; CA-MHB, 37 °C, 20 h; read-out: MIC
A. baumannii = assay: as above; format: cell-based; conditions: Acinetobacter baumannii, ATCC19606; A. baumannii ATCC 19606; CA-MHB, 37 °C, 20 h
[5] = test system: Gram-negative bacterial strains; assay: Antibacterial activity against Gram-negative bacteria; format: cell-based; conditions: four Gram-negative bacterial strains examined
Gram-positive bacteria = assay: Antibacterial activity against Gram-positive bacteria; format: cell-based; conditions: for antibacterial activity against Gram-positive bacteria: such as S. aureus and E. faecium
E. coli = assay: Antibacterial activity, MIC by microdilution broth method (CLSI); conditions: E. coli ATCC 25922; CA-MHB, 37 °C, 20 h
M. avium = assay: MIC in 7H9 liquid medium, 2 weeks; format: cell-based; conditions: Mycobacterium avium, ATCC25291, 336 h, M. avium ATCC 25291, 37 °C, minimum concentration inhibiting at least 50% of growth
MraYAA = MraYAA (Aquifex aeolicus, UniProt O66465); assay: UMP-Glo assay; conditions: for Normalized (UMP / Lipid I formed minus no-enzyme average), source data of Fig. 7a: replicates 1-3
P. aeruginosa = assay: Antibacterial activity, MIC by microdilution broth method (CLSI); format: cell-based; conditions: Pseudomonas aeruginosa, ATCC27853; P. aeruginosa ATCC 27853; CA-MHB, 37 °C, 20 h

MraYAA, sequence (O66465 whole entry): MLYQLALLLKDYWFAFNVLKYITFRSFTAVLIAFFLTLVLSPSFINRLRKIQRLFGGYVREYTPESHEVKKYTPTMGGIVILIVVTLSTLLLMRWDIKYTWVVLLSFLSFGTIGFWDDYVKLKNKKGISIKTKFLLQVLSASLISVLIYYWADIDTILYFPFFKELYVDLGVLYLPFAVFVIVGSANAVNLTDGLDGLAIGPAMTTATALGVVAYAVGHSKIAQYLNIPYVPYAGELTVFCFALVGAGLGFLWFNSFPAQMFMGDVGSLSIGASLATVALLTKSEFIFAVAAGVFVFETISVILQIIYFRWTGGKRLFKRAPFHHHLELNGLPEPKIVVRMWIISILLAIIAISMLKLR

| Structure (SMILES) | MIC (M. tuberculosis) | MIC (K. pneumoniae) | MIC (E. cloacae) | MIC (S. aureus [3]) | IC50 [4] | MraYSA activity, source data of Fig. 7b, average ([4]; compound 0.0001 µM) | MraYSA activity, source data of Fig. 7b, average ([4]; compound 0.001 µM) | MraYSA activity, source data of Fig. 7b, average ([4]; compound 0.01 µM) | MraYSA activity, source data of Fig. 7b, average ([4]; compound 0.1 µM) | MraYSA activity, source data of Fig. 7b, average ([4]; compound 1 µM) | MraYSA activity, source data of Fig. 7b, average ([4]; compound 10 µM) | MraYSA activity, source data of Fig. 7b, average ([4]; compound 100 µM) | MIC (E. faecium) | MIC (A. baumannii) | antibacterial activity against Gram-negative bacterial strains [5] | antibacterial activity against Gram-positive bacteria (Gram-positive bacteria) | MIC (E. coli) | MIC (M. avium) | IC50 (MraYAA) | Normalized (UMP / Lipid I formed minus no-enzyme average), source data of Fig. 7a (MraYAA; inhibitor concentration 0.1) | also measured |
| --- | --- | --- | --- | --- | --- | --- | --- | --- | --- | --- | --- | --- | --- | --- | --- | --- | --- | --- | --- | --- | --- |
| CCCCCCCCCCCCCCCCC[C@H]1CN(C)[C@@H]([C@H](O[C@@H]2O[C@H](CN)[C@@H](O)[C@H]2O)[C@H]2O[C@@H](n3ccc(=O)[nH]c3=O)[C@H](O)[C@@H]2O)C(=O)N(C)[C@@H]1C(=O)O [Carbacaprazamycin] |  |  |  |  |  |  |  |  |  |  |  |  |  |  |  |  |  |  |  |  | IC50 [1]: 0.0038 µM; MIC (S. aureus [2]): 8 µg/mL (≈ 10 µM) |
| CCCCCCCCCCCCCCCC(=O)O[C@@H]1[C@@H]2CN(C[C@@H]1O)[C@H](C(=O)O)[C@@H]([C@H]1O[C@@H](n3ccc(=O)[nH]c3=O)[C@H](O)[C@@H]1O)O[C@@H]1O[C@H](CN2)[C@@H](O)[C@H]1O [SPM-1] | 16 µg/mL (≈ 20.4 µM) | > 64 µg/mL | > 64 µg/mL | 2 µg/mL (≈ 2.55 µM) | 0.0091 µM | 94.43 | 84.3881 | 49.3175 | 11.924 | 3.067 | 2.786 | 7.015 | 4 µg/mL (≈ 5.1 µM) | > 64 µg/mL | inactive | active | >64 µg/mL | 2 µg/mL (≈ 2.55 µM) | 0.17 µM | 22.1835 and 21.2199 and 20.7564 | MIC (Gram-positive bacteria; range over S. aureus and E. faecium of Table 1, read-out: MIC against the Gram-positive pathogens): 2 to 4 µg/mL (≈ 2.55 to 5.1 µM); Normalized (UMP / Lipid I formed minus no-enzyme average), source data of Fig. 7a (MraYAA; inhibitor concentration 0.025): 27.4002 and 27.6068 and 25.0152; Normalized (UMP / Lipid I formed minus no-enzyme average), source data of Fig. 7a (MraYAA; inhibitor concentration 0.05): 23.6062 and 21.9589 and 21.8339; Normalized (UMP / Lipid I formed minus no-enzyme average), source data of Fig. 7a (MraYAA; inhibitor concentration 0.2): 13.2781 and 11.6659 and 13.2137; Normalized (UMP / Lipid I formed minus no-enzyme average), source data of Fig. 7a (MraYAA; inhibitor concentration 0.3): 8.4302 and 9.0267 and 7.4669; Normalized (UMP / Lipid I formed minus no-enzyme average), source data of Fig. 7a (MraYAA; inhibitor concentration 0.4): 6.5859 and 6.3347 and 6.5433; Normalized (UMP / Lipid I formed minus no-enzyme average), source data of Fig. 7a (MraYAA; inhibitor concentration 0.8): 3.6877 and 2.5343 and 3.6699; Normalized (UMP / Lipid I formed minus no-enzyme average), source data of Fig. 7a (MraYAA; inhibitor concentration 1): 4.5308 and 4.5928 and 4.1831; Normalized (UMP / Lipid I formed minus no-enzyme average), source data of Fig. 7a (MraYAA; inhibitor concentration 5): 0.1572 and 0.6868 and 0.8992; Normalized (UMP / Lipid I formed minus no-enzyme average), source data of Fig. 7a (MraYAA; inhibitor concentration 50): 0.4734 and -0.0522 and 0.3348; MIC (P. aeruginosa): > 64 µg/mL |
| CCCCCCCCCCCCCCCC(=O)O[C@@H]1[C@H](O)CN2C[C@H]1NC[C@H]1O[C@@H](O[C@H]([C@H]3O[C@@H](n4ccc(=O)[nH]c4=O)[C@H](O)[C@@H]3O)[C@H]2C(=O)O)[C@H](O)[C@@H]1O [SPM-2] | > 32 µg/mL | > 64 µg/mL | > 64 µg/mL | > 64 µg/mL | 0.33 µM | 104.091 | 99.892 | 103.991 | 72.6566 | 26.5839 | 7.955 | 4.902 | 16 µg/mL (≈ 20.4 µM) | > 64 µg/mL | inactive | active | >64 µg/mL | 16 µg/mL (≈ 20.4 µM) | 9.2 µM | 34.6720 and 31.83 and 31.8908 | MIC increase relative to SPM-1 (Gram-positive bacteria; Gram-positive pathogens): 4 fold; Normalized (UMP / Lipid I formed minus no-enzyme average), source data of Fig. 7a (MraYAA; inhibitor concentration 0.4): 29.3499 and 29.56 and 31.6856; Normalized (UMP / Lipid I formed minus no-enzyme average), source data of Fig. 7a (MraYAA; inhibitor concentration 1): 31.9846 and 31.04 and 28.7608; Normalized (UMP / Lipid I formed minus no-enzyme average), source data of Fig. 7a (MraYAA; inhibitor concentration 2.5): 26.0302 and 21.75 and 21.7826; Normalized (UMP / Lipid I formed minus no-enzyme average), source data of Fig. 7a (MraYAA; inhibitor concentration 5): 29.9822 and 25.5 and 23.2193; Normalized (UMP / Lipid I formed minus no-enzyme average), source data of Fig. 7a (MraYAA; inhibitor concentration 12.5): 17.4410 and 14.04 and 12.8545; Normalized (UMP / Lipid I formed minus no-enzyme average), source data of Fig. 7a (MraYAA; inhibitor concentration 25): 11.3284 and 8.499 and 7.57; Normalized (UMP / Lipid I formed minus no-enzyme average), source data of Fig. 7a (MraYAA; inhibitor concentration 50): 4.6362 and 4.593 and 4.08; Normalized (UMP / Lipid I formed minus no-enzyme average), source data of Fig. 7a (MraYAA; inhibitor concentration 70): 3.9512 and 2.534 and 2.592; Normalized (UMP / Lipid I formed minus no-enzyme average), source data of Fig. 7a (MraYAA; inhibitor concentration 140): 2.0542 and 1.162 and 1.464; MIC (P. aeruginosa): > 64 µg/mL |
